According to patent US20080207683A1, “BIARYL-S[…]-PYRAZOLO-PYRIDINE MODULATORS OF CATHEPSIN S” (priority 2007, published 2008):

Target: T1, Human CatS (Homo sapiens, UniProt P25774)
T1 construct: made in house; host or cells: Sf9 insect cells (baculovirus vector pFB+HT)
Assay: CatS inhibition of hydrolysis of fluorescent substrate Z-Val-Val-Arg-AFC
Format: biochemical
Settings: apparent Ki, Morrison equation fit of initial rates; 10 μM Z-Val-Val-Arg-AFC, pH 5.0, 1.5 nM CatS; read-out: CatS Ki^app
Method: Human CatS was cloned into pFB+HT (from Stratagene clone), expressed in Sf9 cells, and purified over a Ni column. Fractions were concentrated and activated at pH 4.0 for 6 hr and then purified over a thiopropylsepharose column and eluted with 1×TBS, 500 mM NaCl, 1 mM EDTA, 25 mM DTT pH 7.6. Glycerol (50%) was added in a 1:1 (vol/vol) ratio (25% glycerol final) and protein was stored at −80° C. in 5 μL aliquots. […] The increase in fluorescence over time was monitored using λexcitation=400 nm and λemission=505 nm.
In equation 1, v is the initial rate measured in the presence of [I]0, the inhibitor concentration, using an enzyme concentration [E]0. v0 is the initial rate measured in the absence of inhibitor.

T1 sequence (P25774 115-331): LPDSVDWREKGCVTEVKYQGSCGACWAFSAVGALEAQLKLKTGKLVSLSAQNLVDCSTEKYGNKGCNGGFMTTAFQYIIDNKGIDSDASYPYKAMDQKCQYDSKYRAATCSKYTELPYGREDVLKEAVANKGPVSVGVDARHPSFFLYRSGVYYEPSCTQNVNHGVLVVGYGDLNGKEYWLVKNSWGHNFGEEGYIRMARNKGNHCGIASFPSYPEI

Row | Structure (SMILES) | Ki
1 | CS(=O)(=O)N1CCc2c(c(-c3ccc(Cl)c(-c4cccc(C(=O)NCc5nc(-c6ccccc6)cs5)c4)c3)nn2CCCN2CCCC2)C1 [Example 23, 2′-Chloro-5′-[5-methanesulfonyl-1-(3-pyrrolidin-1-yl-propyl)-4,5,6,7-tetrahydro-1H-pyrazolo[4,3-c]pyridin-3-yl]-biphenyl-3-carboxylic acid (4-phenyl-thiazol-2-ylmethyl)-amide] | 0.0889 µM
2 | C[C@@H](NC(=O)c1cccc(-c2cc(-c3nn(CCCN4CCCC4)c4c3CN(S(C)(=O)=O)CC4)ccc2Cl)c1)c1nc(-c2ccccc2)cs1 [Example 24, (R)-2′-Chloro-5′-[5-methanesulfonyl-1-(3-pyrrolidin-1-yl-propyl)-4,5,6,7-tetrahydro-1H-pyrazolo[4,3-c]pyridin-3-yl]-biphenyl-3-carboxylic acid [1-(4-phenyl-thiazol-2-yl)-ethyl]-amide] | 0.175 µM
3 | CS(=O)(=O)N1CCc2c(c(-c3ccc(Cl)c(-c4cccc(C(=O)NCc5nc6cc(F)ccc6s5)c4)c3)nn2CCCN2CCCC2)C1 [Example 25, 2′-Chloro-5′-[5-methanesulfonyl-1-(3-pyrrolidin-1-yl-propyl)-4,5,6,7-tetrahydro-1H-pyrazolo[4,3-c]pyridin-3-yl]-biphenyl-3-carboxylic acid (5-fluoro-benzothiazol-2-ylmethyl)-amide] | 0.117 µM
4 | COc1ccc(NC(=O)CNC(=O)c2cccc(-c3cc(-c4nn(CCCN5CCCC5)c5c4CN(S(C)(=O)=O)CC5)ccc3Cl)c2)cc1 [Example 26, 2′-Chloro-5′-[5-methanesulfonyl-1-(3-pyrrolidin-1-yl-propyl)-4,5,6,7-tetrahydro-1H-pyrazolo[4,3-c]pyridin-3-yl]-biphenyl-3-carboxylic acid [(4-methoxy-phenylcarbamoyl)-methyl]-amide] | 0.712 µM
5 | CS(=O)(=O)N1CCc2c(c(-c3ccc(Cl)c(-c4cccc(C(=O)NCc5ncco5)c4)c3)nn2CCCN2CCC(O)C2)C1 (stereo not drawn) [Example 29, 2′-Chloro-5′-{1-[3-(3-hydroxy-pyrrolidin-1-yl)-propyl]-5-methanesulfonyl-4,5,6,7-tetrahydro-1H-pyrazolo[4,3-c]pyridin-3-yl}-biphenyl-3-carboxylic acid (oxazol-2-ylmethyl)-amide] | 0.477 µM
6 | CS(=O)(=O)N1CCc2c(c(-c3ccc(Cl)c(-c4cccc(C(=O)NCc5nc6ccccc6s5)c4)c3)nn2CCCN2CCC(O)C2)C1 (stereo not drawn) [Example 30, 2′-Chloro-5′-{1-[3-(3-hydroxy-pyrrolidin-1-yl)-propyl]-5-methanesulfonyl-4,5,6,7-tetrahydro-1H-pyrazolo[4,3-c]pyridin-3-yl}-biphenyl-3-carboxylic acid (benzothiazol-2-ylmethyl)-amide] | 0.325 µM

These reach a lower Ki. Values come first.

Row | Ki | Structure (SMILES)
7 | 0.0754 µM | CC(C)(C)c1csc(CNC(=O)c2cccc(-c3cc(-c4nn(CCCN5CCCC5)c5c4CN(S(C)(=O)=O)CC5)ccc3Cl)c2)n1 [Example 22, 2′-Chloro-5′-[5-methanesulfonyl-1-(3-pyrrolidin-1-yl-propyl)-4,5,6,7-tetrahydro-1H-pyrazolo[4,3-c]pyridin-3-yl]-biphenyl-3-carboxylic acid (4-tert-butyl-thiazol-2-ylmethyl)-amide]
8 | 0.0195 µM | COc1ccc(NCCNC(=O)c2cccc(-c3cc(-c4nn(CCCN5CCC(O)C5)c5c4CN(S(C)(=O)=O)CC5)ccc3Cl)c2)cc1 (stereo not drawn) [Example 28, 2′-Chloro-5′-{1-[3-(3-hydroxy-pyrrolidin-1-yl)-propyl]-5-methanesulfonyl-4,5,6,7-tetrahydro-1H-pyrazolo[4,3-c]pyridin-3-yl}-biphenyl-3-carboxylic acid [2-(4-methoxy-phenylamino)-ethyl]-amide]
9 | 0.0273 µM | COc1ccc(NCCNC(=O)c2cccc(-c3cc(-c4nn(CCCN5CCC(N6CCCC6=O)CC5)c5c4CN(S(C)(=O)=O)CC5)ccc3Cl)c2)cc1 [Example 31, 2′-Chloro-5′-(5-methanesulfonyl-1-{3-[4-(2-oxo-pyrrolidin-1-yl)-piperidin-1-yl]-propyl}-4,5,6,7-tetrahydro-1H-pyrazolo[4,3-c]pyridin-3-yl)-biphenyl-3-carboxylic acid [2-(4-methoxy-phenylamino)-ethyl]-amide]
